Measured values: patent publication US20260022142A1, “MACROCYCLIC IMMUNOMODULATORS” (Bristol-Myers Squibb Company, priority 2022, published 2026)
Bridge positions count the residues as written; N and C are the ends. Square brackets hold non-standard residues; d marks the D form. Peptide text beside a SMILES is read from it. * marks the point of attachment. ξ: configuration not given here. Phe(3-CF3) = N[C@@H](Cc1cccc(C(F)(F)F)c1)C(=O)O; Tyr(3,5-F2) = N[C@@H](Cc1cc(F)c(O)c(F)c1)C(=O)O; Phe(4-COOH) = N[C@@H](Cc1ccc(C(=O)O)cc1)C(=O)O; Bip = N[C@@H](Cc1ccc(-c2ccccc2)cc1)C(=O)O; NH(CH2)14COOH = O=C(O)CCCCCCCCCCCCCCN*; Phe(3-Me) = Cc1cccc(C[C@H](N)C(=O)O)c1; Abu(3S-NH2) = C[C@H](N)[C@H](N)C(=O)O; NH(CH2)12COOH = O=C(O)CCCCCCCCCCCCN*; Val(3-OH) = CC(C)(O)[C@H](N)C(=O)O; Cha = N[C@@H](CC1CCCCC1)C(=O)O; Cit = NC(=O)NCCC[C@H](N)C(=O)O; Thr(3ξ) = CC(O)[C@H](N)C(=O)O; Carboxymethyl = O=C(O)C*; Nle = CCCC[C@H](N)C(=O)O; Orn = NCCC[C@H](N)C(=O)O; Aun = NCCCCCCCCCCC(=O)O; Dab = NCC[C@H](N)C(=O)O; Dap = NC[C@H](N)C(=O)O; AEEA = NCCOCCOCC(=O)O; Piv = CC(C)(C)C(=O)*; CF3 = FC(F)(F)*

Biological target: T1, PD-1/PD-L1 interaction (PE-labeled human PD-L1-Ig binding to Jurkat cell line over-expressing human PD-1) (Homo sapiens, UniProt Q15116)
T1 construct: expressed in transfected cells; host or cells: Jurkat
T1 sequence (Q15116 25-288): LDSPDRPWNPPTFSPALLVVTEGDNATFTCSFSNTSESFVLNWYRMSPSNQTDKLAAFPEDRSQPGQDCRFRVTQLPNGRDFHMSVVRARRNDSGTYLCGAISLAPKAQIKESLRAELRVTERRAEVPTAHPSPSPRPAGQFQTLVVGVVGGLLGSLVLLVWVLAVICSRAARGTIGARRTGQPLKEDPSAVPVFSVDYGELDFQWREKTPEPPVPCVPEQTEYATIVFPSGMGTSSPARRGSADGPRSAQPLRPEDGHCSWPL
Test: Jurkat-PD-1 Cell Binding High-Content Screening Assay (CBA)
Format: cell-based
Conditions: Jurkat cell line over-expressing human PD-1; PE-labeled PD-L1-Ig 20 nM final; read-out: Jurkat hPD1-PDL1 IC50
Outline: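 Human PD-L1-Ig carrying a covalent PE label on its Ig tag serves as the probe, applied at 20 nM final to compound-treated (2 h, 37° C) Jurkat-hPD-1 cells in medium with 10% fetal calf serum. After one hour, fixation and nuclear staining precede high-content image analysis.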

Row | IC50 [nM] | Structure (SMILES)
1 | 39.3 | CC(C)C[C@@H]1NC(=O)[C@H](Cc2c[nH]c3ccccc23)NC(=O)[C@H](CC(=O)O)NC(=O)[C@H](Cc2ccc(C(=O)O)cc2)NC(=O)[C@H](Cc2ccc(OCC(=O)O)cc2)NC(=O)CSC[C@@H](C(=O)NCCOCCOCC(=O)NCCCCCCCCCCC(=O)O)NC(=O)[C@H](CN)NC(=O)[C@H](C(C)C)NC(=O)[C@H](CC2CCCCC2)NC(=O)[C@H](CCN)NC(=O)[C@@H](CC(C)C)NC(=O)[C@H](CCCN)NC(=O)[C@H](Cc2ccc(O)cc2)NC(=O)[C@H](Cc2ccc(-c3ccccc3)cc2)NC1=O [Compound 1238] ({CH2CO}-Y(Carboxymethyl)[Phe(4-COOH)]DWL[Bip]Y[Orn][dL][Dab][Cha]V[Dap]C[AEEA][Aun]-OH; thioether N-14)
2 | 40.8 | Cc1cccc(C[C@@H]2NC(=O)[C@H](CC(=O)O)NC(=O)[C@H](Cc3ccc(OCC(=O)O)cc3)NC(=O)[C@H](CCCNC(=N)N)NC(=O)CSC[C@@H](C(=O)N[C@H](CC(N)=O)C(=O)NCCCCCCCCCCC(=O)O)NC(=O)[C@H](C(C)O)NC(=O)[C@H](C(C)O)NC(=O)[C@H](CC3CCCCC3)NC(=O)[C@H](CCN)NC(=O)[C@@H](CC(C)C)NC(=O)[C@H](CCCN)NC(=O)[C@H](Cc3ccc(OCC(=O)O)cc3)NC(=O)[C@H](Cc3ccc(-c4ccccc4)cc3)NC(=O)[C@H](Cc3ccc(O)cc3)NC2=O)c1 (stereo partly drawn) [Compound 3524] ({CH2CO}-RY(Carboxymethyl)D[Phe(3-Me)]Y[Bip]Y(Carboxymethyl)[Orn][dL][Dab][Cha][Thr(3ξ)][Thr(3ξ)]C[dN][Aun]-OH; thioether N-14)
3 | 10.5 | Cc1cccc(C[C@@H]2NC(=O)[C@H](CC(=O)O)NC(=O)[C@H](Cc3ccc(OCC(=O)O)cc3)NC(=O)[C@H](C(C)O)NC(=O)CSC[C@@H](C(=O)N[C@@H](CCN)C(=O)NCCOCCOCC(=O)NCCCCCCCCCCC(=O)O)NC(=O)[C@H](CCC(=O)O)NC(=O)[C@H](C(C)C)NC(=O)[C@H](CC3CCCCC3)NC(=O)[C@H](CCN)NC(=O)[C@@H](CC(C)C)NC(=O)[C@H](CCCN)NC(=O)[C@H](Cc3ccc(OCC(=O)O)cc3)NC(=O)[C@H](Cc3ccc(-c4ccccc4)cc3)NC(=O)[C@H](Cc3ccc(C(=O)O)cc3)NC2=O)c1 (stereo partly drawn) [Compound 3737] ({CH2CO}-[Thr(3ξ)]Y(Carboxymethyl)D[Phe(3-Me)][Phe(4-COOH)][Bip]Y(Carboxymethyl)[Orn][dL][Dab][Cha]VEC[Dab][AEEA][Aun]-OH; thioether N-14)
4 | 55 | CC(C)C[C@H]1NC(=O)[C@H](CCCN)NC(=O)[C@H](Cc2ccc(C(=O)O)cc2)NC(=O)[C@H](Cc2ccc(-c3ccccc3)cc2)NC(=O)[C@H](Cc2ccc(C(=O)O)cc2)NC(=O)[C@H](Cc2cccc(C(F)(F)F)c2)NC(=O)[C@H](CC(=O)O)NC(=O)[C@H](Cc2ccc(OCC(=O)O)cc2)NC(=O)[C@H]([C@H](C)N)NC(=O)CSC[C@@H](C(=O)N[C@@H](CCN)C(=O)NCCCCCCCCCCCCC(=O)O)NC(=O)[C@H](CO)NC(=O)[C@H](C(C)(C)O)NC(=O)[C@H](CC2CCCCC2)NC(=O)[C@H](CCN)NC1=O [Compound 2944] ({CH2CO}-[Abu(3S-NH2)]Y(Carboxymethyl)D[Phe(3-CF3)][Phe(4-COOH)][Bip][Phe(4-COOH)][Orn][dL][Dab][Cha][Val(3-OH)]SC[Dab]-{NH(CH2)12COOH}; thioether N-14)
5 | 24.1 | Cc1cccc(C[C@@H]2NC(=O)[C@H](CC(=O)O)NC(=O)[C@H](Cc3ccc(OCC(=O)O)cc3)NC(=O)[C@H](CCN)NC(=O)CSC[C@@H](C(=O)N[C@@H](CCCCN)C(=O)N[C@@H](CN)C(=O)NCCCCCCCCCCC(=O)O)NC(=O)[C@H](CCCCN)NC(=O)[C@H](C(C)C)NC(=O)[C@H](CC3CCCCC3)NC(=O)[C@H](CCN)NC(=O)[C@@H](CC(C)C)NC(=O)[C@H](CCCN)NC(=O)[C@H](Cc3ccc(O)cc3)NC(=O)[C@H](Cc3ccc(-c4ccccc4)cc3)NC(=O)[C@H](CCCCNC(=O)C(C)(C)C)NC2=O)c1 [Compound 3613] ({CH2CO}-[Dab]Y(Carboxymethyl)D[Phe(3-Me)]K(Piv)[Bip]Y[Orn][dL][Dab][Cha]VKCK[Dap][Aun]-OH; thioether N-14)
6 | 18.3 | Cc1cccc(C[C@@H]2NC(=O)[C@H](CC(=O)O)NC(=O)[C@H](Cc3ccc(OCC(=O)O)cc3)NC(=O)[C@H](CCCNC(=N)N)NC(=O)CSC[C@@H](C(=O)N[C@@H](CCN)C(=O)NCCCCCCCCCCC(=O)O)NC(=O)[C@H](C(C)O)NC(=O)[C@H](C(C)C)NC(=O)[C@H](CC3CCCCC3)NC(=O)[C@H](CCN)NC(=O)[C@@H](CC(C)C)NC(=O)[C@H](CCCNC(N)=O)NC(=O)[C@H](Cc3ccc(OCC(=O)O)cc3)NC(=O)[C@H](Cc3ccc(-c4ccccc4)cc3)NC(=O)[C@H](C(C)C)NC2=O)c1 (stereo partly drawn) [Compound 3450] ({CH2CO}-RY(Carboxymethyl)D[Phe(3-Me)]V[Bip]Y(Carboxymethyl)[Cit][dL][Dab][Cha]V[Thr(3ξ)]C[Dab][Aun]-OH; thioether N-14)
7 | 10.9 | CC(C)C[C@H]1NC(=O)[C@H](CCN)NC(=O)[C@H](C(C)C)NC(=O)[C@H](Cc2ccc(-c3ccccc3)cc2)NC(=O)[C@H](C(C)C)NC(=O)[C@H](Cc2c[nH]c3ccccc23)NC(=O)[C@H](CC(=O)O)NC(=O)[C@H](Cc2ccc(C(=O)O)cc2)NC(=O)[C@H](Cc2ccc(OCC(=O)O)cc2)NC(=O)CSC[C@@H](C(=O)N[C@@H](CCN)C(=O)NCCOCCOCC(=O)NCCCCCCCCCCC(=O)O)NC(=O)[C@H](CCCN)NC(=O)[C@H](C(C)C)NC(=O)[C@H](CC2CCCCC2)NC(=O)[C@H](CCN)NC1=O [Compound 3243] ({CH2CO}-Y(Carboxymethyl)[Phe(4-COOH)]DWV[Bip]V[Dab][dL][Dab][Cha]V[Orn]C[Dab][AEEA][Aun]-OH; thioether N-14)
8 | 631 | CCCC[C@@H]1NC(=O)CSC[C@@H](C(=O)N[C@@H](CCN)C(=O)NCCCCCCCCCCCCCCC(=O)O)NC(=O)[C@H](CO)NC(=O)[C@H](C(C)(C)O)NC(=O)[C@H](CC2CCCCC2)NC(=O)[C@H](CCN)NC(=O)[C@@H](CC(C)C)NC(=O)[C@H](CCCN)NC(=O)[C@H](Cc2ccc(C(=O)O)cc2)NC(=O)[C@H](Cc2ccc(-c3ccccc3)cc2)NC(=O)[C@H](Cc2ccc(C(=O)O)cc2)NC(=O)[C@H](Cc2cccc(C(F)(F)F)c2)NC(=O)[C@H](CC(=O)O)NC(=O)[C@H](Cc2ccc(OCC(=O)O)cc2)NC1=O [Compound 2913] ({CH2CO}-[Nle]Y(Carboxymethyl)D[Phe(3-CF3)][Phe(4-COOH)][Bip][Phe(4-COOH)][Orn][dL][Dab][Cha][Val(3-OH)]SC[Dab]-{NH(CH2)14COOH}; thioether N-14)
9 | 8.4 | Cc1cccc(C[C@@H]2NC(=O)[C@H](CC(=O)O)NC(=O)[C@H](Cc3ccc(OCC(=O)O)cc3)NC(=O)[C@H](CN)NC(=O)CSC[C@@H](C(=O)N[C@@H](CCN)C(=O)NCCOCCOCC(=O)NCCCCCCCCCCC(=O)O)NC(=O)[C@H](CCCN)NC(=O)[C@H](C(C)C)NC(=O)[C@H](CC3CCCCC3)NC(=O)[C@H](CCN)NC(=O)[C@@H](CC(C)C)NC(=O)[C@H](CCCN)NC(=O)[C@H](Cc3ccc(O)cc3)NC(=O)[C@H](Cc3ccc(-c4ccccc4)cc3)NC(=O)[C@H](Cc3cc(F)c(O)c(F)c3)NC2=O)c1 [Compound 2076] ({CH2CO}-[Dap]Y(Carboxymethyl)D[Phe(3-Me)][Tyr(3,5-F2)][Bip]Y[Orn][dL][Dab][Cha]V[Orn]C[Dab][AEEA][Aun]-OH; thioether N-14)
10 | 29.7 | CC(C)C[C@H]1NC(=O)[C@H](CCCN)NC(=O)[C@H](C(C)C)NC(=O)[C@H](Cc2ccc(-c3ccccc3)cc2)NC(=O)[C@H](C(C)C)NC(=O)[C@H](Cc2c[nH]c3ccccc23)NC(=O)[C@H](CC(=O)O)NC(=O)[C@H](Cc2ccc(OCC(=O)O)cc2)NC(=O)[C@H](CN)NC(=O)CSC[C@@H](C(=O)NCCOCCOCC(=O)N[C@@H](CCCCN)C(=O)NCCCCCCCCCCC(=O)O)NC(=O)[C@H](C(C)O)NC(=O)[C@H](C(C)C)NC(=O)[C@H](CC2CCCCC2)NC(=O)[C@H](CC(=O)O)NC1=O (stereo partly drawn) [Compound 3147] ({CH2CO}-[Dap]Y(Carboxymethyl)DWV[Bip]V[Orn][dL]D[Cha]V[Thr(3ξ)]C[AEEA]K[Aun]-OH; thioether N-14)
11 | 52.7 | CC(=O)NCCCC[C@@H]1NC(=O)[C@H](C(C)(C)O)NC(=O)[C@H](CC2CCCCC2)NC(=O)[C@H](CCN)NC(=O)[C@@H](CC(C)C)NC(=O)[C@H](CCCN)NC(=O)[C@H](Cc2ccc(C(=O)O)cc2)NC(=O)[C@H](Cc2ccc(-c3ccccc3)cc2)NC(=O)[C@H](Cc2ccc(C(=O)O)cc2)NC(=O)[C@H](Cc2cccc(C)c2)NC(=O)[C@H](CC(=O)O)NC(=O)[C@H](Cc2ccc(OC(F)(F)F)cc2)NC(=O)[C@H](Cc2ccc(OCC(=O)O)cc2)NC(=O)CSC[C@@H](C(=O)N[C@@H](CCN)C(=O)NCCOCCOCC(=O)NCCCCCCCCCCCCC(=O)O)NC1=O [Compound 3859] ({CH2CO}-Y(Carboxymethyl)Y(CF3)D[Phe(3-Me)][Phe(4-COOH)][Bip][Phe(4-COOH)][Orn][dL][Dab][Cha][Val(3-OH)]K(Ac)C[Dab][AEEA]-{NH(CH2)12COOH}; thioether N-14)
12 | 35.8 | Cc1cccc(C[C@@H]2NC(=O)[C@H](CC(=O)O)NC(=O)[C@H](Cc3ccc(OCC(=O)O)cc3)NC(=O)[C@H](CN)NC(=O)CSC[C@@H](C(=O)N[C@@H](CC(=O)O)C(=O)NCCCCCCCCCCC(=O)O)NC(=O)[C@H]([C@@H](C)O)NC(=O)[C@H](C(C)C)NC(=O)[C@H](CC3CCCCC3)NC(=O)[C@H](Cc3cnc[nH]3)NC(=O)[C@@H](CC(C)C)NC(=O)[C@H](CCCN)NC(=O)[C@H](C(C)C)NC(=O)[C@H](Cc3ccc(-c4ccccc4)cc3)NC(=O)[C@H](C(C)C)NC2=O)c1 [Compound 1107] ({CH2CO}-[Dap]Y(Carboxymethyl)D[Phe(3-Me)]V[Bip]V[Orn][dL]H[Cha]VTCD[Aun]-OH; thioether N-14)
